Test results taken from patent US9963480B2, “Nucleoside phosphoramidate compound and use thereof” (priority 2013, dated 2018).
pEC50: −log10 of the molar value.

Tests used:
[1] = Pharmacokinetic studies in SD rats: metabolite GS-461203 in liver homogenate; assay type: in vivo; settings: liver tissue, 50 mg/kg intragastric
Protocol: In this experiment, the compound of Example 1 was used, and the positive control drug was the same as above. Each of the compounds was added to 0.5% sodium carboxymethyl cellulose (CMC), and the mixture was vortexed to prepare a 10 mg/mL suspension for intragastric administration.
The standard substance GS-461203 was the metabolite of the tested compounds, and the chemical name was (2′R)-2′-deoxy-2′-fluoro-2′-methyluridinetriphosphate, which was purchased from TriLink BioTechnologies Corporation, USA.
Male SD rats, 6-8 weeks old, weighing 237.0-268.4 g, provided by Shanghai Super-B&K laboratory animal Co. Limited.
• 1) administration: dividing SD rats into 4 groups, with 18 rats in each group, intragastrically administering with the compound in an amount of 50 mg/kg. […]

[2] = system: J399EM (HCV genotype 2a) virus; experiment: Antiviral activity assay in the cell-culture-derived infectious HCV (HCVcc) system; assay type: cell-based
Protocol: The compound according to the above example 1 was used in this experiment. The compound was formulated into a 10 mM mother liquid with DMSO, diluted to 500 nM by DMEM complete culture medium containing 0.5% of DMSO, followed by 4-fold dilution successively, and six concentrations were obtained. The positive control was diluted to 10 μM by DMEM complete culture medium containing 0.5% of DMSO, followed by 4-fold successively, and six concentrations were obtained.
Huh 7.5.1 cells, provided by Shanghai Institute of Materia Medica, Chinese Academy of Sciences.
J399EM (HCV genotype 2a) virus, i.e. a full length HCV mutant strain transfected with EGFP (enhanced green fluorescent protein) was used, which had the same infection capacity as the wild type JFH-1. The NS5A-EGFP fusion protein fluorescence was observed directly in infected cells by inserting EGFP coding sequence in the NS5A region. J399EM was provided by Shanghai Institute of Materia Medica, Chinese Academy of Sciences.
• 1) Huh 7.5.1 cells preparation: collecting the Huh7.5.1 cells in logarithmic phase, resuspending in DMEM complete culture medium, seeding into 96-well plates (7×10^3 cells/well), and incubating in a 37° C., 5% CO2 incubator for 24 h; • 2) virus infection: resuspending J399EM viruses in DMEM complete culture medium, adding the virus supernatant (MOI≈0.1) to the above 96-well plates, and washing with PBS after 8 hours of infection; • 3) drug treatment: adding various concentrations of the compounds to the Huh7.5.1 cells infected by J399EM viruses, with each concentration in duplicate; setting the control group with zero percent effect (ZPE) and the control group with hundred percent effect (HPE); replacing the compound with the DMEM complete culture medium containing 0.5% DMSO in ZPE group, and using the cells not infected with viruses in HPE group. • 4) cells incubation: incubating the 96-well plates in a 37° C., 5% CO2 incubator for 72 hr; • 5) anti-HCV activity detection: reading the relative fluorescence units (RFU) of each well by EnVision® Multi label Plate readers after incubation, and calculating the anti-HCV activity of the compounds using the obtained data according to the following formula: Inhibition %=(RFUZPE−RFUCPD)/(RFUZPE−RFUHPE)×100 • wherein RFUZPE represents the relative fluorescence units of the control group with zero percent effect and RFUCPD represents the relative fluorescence units of the corresponding compound group, and RFUHPE represents the relative fluorescence units of the control group with hundred percent effect. • 6) Cell viability detection: adding MTT solution to each well, incubating in a 37° C., 5% CO2 incubator for 4 hr, followed by addition of MTT dissolving solution, reading optical density (OD) of each well at 570 nm by the Multi label Plate readers after 6 hr, calculating the cytotoxicity of the compounds using the obtained data according to the following formula: Viability %=ODCPD/ODZPE×100 • wherein ODZPE represents the optical density of the control group with zero percent effect, and ODCPD represents the optical density of the corresponding compound; • 7) Data processing: processing the Inhibition %, Viability % by GraphPad Prism Software respectively, and obtaining the half maximal effective concentration (EC50) values and half maximal cytotoxic concentration (CC50) values of the compounds against the HVCcc GT2a viruses.

CC(C)OC(=O)[C@H](C)NP(=O)(OC[C@H]1O[C@@H](n2ccc(=O)[nH]c2=O)[C@](C)(F)[C@@H]1O)Oc1ccc(-c2ccccc2)cc1 (stereo partly drawn) [Example 1, (2S)-2-((([1,1′-biphenyl]-4-yloxy)(((2R,3R,4R,5R)-5-(2,4-dioxo-3,4-dihydropyrimidin-1(2H)-yl)-4-fluoro-3-hydroxy-4-methyltetrahydrofuran-2-yl)methoxy)phosphoryl)amino)propanoic Acid Isopropyl Ester]
in vivo exposure level of the metabolite compared with the positive control [1]: greater
antiviral activity compared with the positive control ([2]; HCVcc system): excellent
pEC50 ([2]; Hepatitis C virus, Huh-7.5.1, 72 h): 7.41
